Toxic doses and inconclusive results are not listed.
System: CD2F1 mice, L1210 leukemia ip, survival T/C
Experiment: NCI In Vivo Anticancer Drug Screen. Data for tumor model L1210 Leukemia (intraperitoneal) in CD2F1 (CDF1) mice
Conditions: endpoint: mean survival time, higher = longer survival
Summary of the method: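 Read-out first: treated-group measurement over vehicle-control measurement, expressed as a ratio. Animals bore a transplanted tumor line and were dosed with compound or vehicle.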

[1] = dose: 100.0 mg/kg/injection, schedule: Q04DX002 (ip), vehicle: saline with Tween-80
[2] = dose: 200.0 mg/kg/injection, schedule: Q04DX002 (ip), vehicle: saline with Tween-80
[3] = dose: 50.0 mg/kg/injection, schedule: Q01DX009 (ip), vehicle: saline with Tween-80
[4] = dose: 100.0 mg/kg/injection, schedule: Q04DX003 (ip), vehicle: saline with Tween-80
[5] = dose: 200.0 mg/kg/injection, schedule: Q04DX003 (ip), vehicle: saline with Tween-80

In the case of `COC(=O)c1cccc2c(Br)cc3ccccc3c12`, the T/C (dose: 100.0 mg/kg/injection, schedule: Q01DX009 (ip), vehicle: Klucel (hydroxypropylcellulose) (HPC)) is reported as 98 % of control, the T/C (dose: 100.0 mg/kg/injection, schedule: Q04DX003 (ip), vehicle: Klucel (hydroxypropylcellulose) (HPC)) is reported as 102 % of control and the T/C (dose: 200.0 mg/kg/injection, schedule: Q01DX009 (ip), vehicle: Klucel (hydroxypropylcellulose) (HPC)) is reported as 103 % of control. The T/C (dose: 200.0 mg/kg/injection, schedule: Q04DX003 (ip), vehicle: Klucel (hydroxypropylcellulose) (HPC)) was 98 % of control, the T/C (dose: 400.0 mg/kg/injection, schedule: Q01DX009 (ip), vehicle: Klucel (hydroxypropylcellulose) (HPC)) was 110 % of control and the T/C (dose: 400.0 mg/kg/injection, schedule: Q04DX003 (ip), vehicle: Klucel (hydroxypropylcellulose) (HPC)) was 108 % of control.
With `NCCOc1ccc(-n2cnc3c(=O)[nH]c(N)nc32)cc1` the T/C (dose: 50.0 mg/kg/injection, schedule: Q04DX002 (ip), vehicle: saline with Tween-80) was 93 % of control, the T/C [1] was 96 % of control and the T/C [2] was 104 % of control.
With `Clc1cc(Cl)c(OCC#CI)c(Cl)c1Cl` the T/C (dose: 50.0 mg/kg/injection, schedule: Q01DX001 (ip), vehicle: carboxymethylcellulose (CMC)) was 100 % of control, the T/C (dose: 100.0 mg/kg/injection, schedule: Q01DX001 (ip), vehicle: carboxymethylcellulose (CMC)) was 100 % of control and the T/C (dose: 200.0 mg/kg/injection, schedule: Q01DX001 (ip), vehicle: carboxymethylcellulose (CMC)) was 100 % of control. The T/C (dose: 400.0 mg/kg/injection, schedule: Q01DX001 (ip), vehicle: carboxymethylcellulose (CMC)) was 103 % of control.
For `CCOC(=N)CNC(=O)c1ccccc1`, the T/C [1] was 105 % of control, the T/C [2] was 98 % of control and the T/C (dose: 400.0 mg/kg/injection, schedule: Q04DX002 (ip), vehicle: saline with Tween-80) was 98 % of control.
In the case of `CCOC(=O)C1CN(C(=O)OCC)CC1=O` (stereo unspecified), the T/C (dose: 50.0 mg/kg/injection, schedule: Q01DX001 (ip), vehicle: other) is reported as 103 % of control, the T/C (dose: 100.0 mg/kg/injection, schedule: Q01DX001 (ip), vehicle: other) is reported as 106 % of control and the T/C (dose: 200.0 mg/kg/injection, schedule: Q01DX001 (ip), vehicle: other) is reported as 107 % of control. The T/C (dose: 400.0 mg/kg/injection, schedule: Q01DX001 (ip), vehicle: other) was 109 % of control.
For `CCCC(C#N)OC(=O)c1ccccc1` (stereo unspecified), the T/C (dose: 25.0 mg/kg/injection, schedule: Q01DX009 (ip), vehicle: saline with Tween-80) was 96 % of control, the T/C [3] was 104 % of control and the T/C [4] was 101 % of control.
For `CC1NC(C)SC(C)S1` (stereo unspecified), the T/C [4] was 101 % of control and the T/C [5] was 98 % of control.
For `CCC(C#N)=C1CCCCC1`, the T/C (dose: 25.0 mg/kg/injection, schedule: Q04DX003 (ip), vehicle: saline) was 93 % of control, the T/C (dose: 50.0 mg/kg/injection, schedule: Q04DX003 (ip), vehicle: saline) was 91 % of control and the T/C (dose: 100.0 mg/kg/injection, schedule: Q04DX003 (ip), vehicle: saline) was 91 % of control.
For `COc1c(Cl)c(=O)oc2ccc(Cl)cc12`, the T/C (dose: 100.0 mg/kg/injection, schedule: Q01DX001 (ip), vehicle: saline with Tween-80) was 93 % of control, the T/C (dose: 200.0 mg/kg/injection, schedule: Q01DX001 (ip), vehicle: saline with Tween-80) was 90 % of control and the T/C (dose: 400.0 mg/kg/injection, schedule: Q01DX001 (ip), vehicle: saline with Tween-80) was 88 % of control.
For `COc1cc2ccc(/C=C\[N+](=O)[O-])cc2cc1OC`, the T/C (dose: 12.5 mg/kg/injection, schedule: Q01DX009 (ip), vehicle: water) was 94 % of control, the T/C (dose: 25.0 mg/kg/injection, schedule: Q01DX009 (ip), vehicle: water) was 102 % of control and the T/C (dose: 50.0 mg/kg/injection, schedule: Q01DX009 (ip), vehicle: water) was 96 % of control.
With `COc1cc(OC)c(NC(=O)Nc2ccc(C)c([N+](=O)[O-])c2)cc1Cl` the T/C [3] was 98 % of control, the T/C (dose: 100.0 mg/kg/injection, schedule: Q01DX009 (ip), vehicle: saline with Tween-80) was 90 % of control and the T/C (dose: 200.0 mg/kg/injection, schedule: Q01DX009 (ip), vehicle: saline with Tween-80) was 94 % of control.
In the case of `O=NN(CCBr)C(=O)Nc1ccccc1`, the T/C (dose: 9.0 mg/kg/injection, schedule: Q01DX Z (ip), vehicle: carboxymethylcellulose (CMC)) is reported as 150 % of control, the T/C (dose: 18.0 mg/kg/injection, schedule: Q01DX Z (ip), vehicle: carboxymethylcellulose (CMC)) is reported as 162 % of control and the T/C (dose: 25.0 mg/kg/injection, schedule: Q01DX Z (ip), vehicle: carboxymethylcellulose (CMC)) is reported as 158 % of control. For the same compound, the T/C (dose: 37.0 mg/kg/injection, schedule: Q01DX Z (ip), vehicle: carboxymethylcellulose (CMC)) was 183 % of control, the T/C (dose: 75.0 mg/kg/injection, schedule: Q01DX Z (ip), vehicle: carboxymethylcellulose (CMC)) was 115 % of control and the T/C (dose: 100.0 mg/kg/injection, schedule: Q01DX Z (ip), vehicle: carboxymethylcellulose (CMC)) was 103 % of control. The T/C (dose: 150.0 mg/kg/injection, schedule: Q01DX Z (ip), vehicle: carboxymethylcellulose (CMC)) was 90 % of control.
With `O=[N+]([O-])c1ccc2c(c1)C(=Nc1ccc3ccccc3c1)c1ccccc1-2` the T/C [4] was 98 % of control and the T/C [5] was 86 % of control.

— PubChem BioAssay AID256 (DTP/NCI, 2004)
